The values that follow come from patent publication US20230083012A1, “DIHYDROPYRIMIDINE DERIVATIVES AND USES THEREOF IN THE TREATMENT OF HBV INFECTION OR OF HBV-INDUCED DISEASES” (priority 2019, published 2023).

What all share (format): cell-based
One data set deals with HepG2.2.15 cells. The experiment in a line: Cytotoxicity determination in HepG2.2.15 cells (CCK-8 cell viability). As to conditions: 6 days treatment, CCK-8 assay, highest concentration 100 uM. In a few lines:
(§1)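 HepG2.2.15 cells seeded at 5,000 cells/well in 2% FBS medium, exposed 6 days to compounds (8-point 1:3 dilutions from 100 uM, triplicate), refreshed at day 3. Viability read by CCK-8 after 2.5 h at 37° C, absorbance 450 nm with 630 nm reference; CC50 calculated.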
Background: Tetrazolium assays rely on reduction of a dye to a coloured formazan, in cell work by metabolically active cells.

In the next data set the test system is HBV. The experiment in a line: Anti-HBV activity in HepG2.2.15 cells (HBV DNA in culture medium by qPCR). As to conditions: HepG2.2.15 cells, 6 days treatment, HBV DNA in culture medium quantified by real-time PCR, read-out: EC50. In a few lines: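 HepG2.2.15 cells in 2% FBS medium at 37 °C were treated with compounds for 6 days, with medium and compound refreshed at day 3; 1:3 dilutions, 8 concentrations in triplicate, top 10 or 1 uM. HBV DNA in culture medium quantified by qPCR to derive EC50; CC50 from parallel plates (top 100 uM).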
On the technique in general: Quantitative PCR measures a nucleic acid by following its amplification.

A short description of data set [1]: Cytotoxicity determination in HepG2.2.15 cells (CCK-8 cell viability). As to conditions: human, 6 days treatment, CCK-8 assay, highest concentration 100 uM. In short, it runs like this:
as §1

SMILES strings stand for the structures. Where two headings read alike, the source gives them in different places. Where only a bound is given, the exact number is not on record here.

What is called CC50 is the concentration at which the toxic effect on the cells reaches its halfway point. Low readings indicate greater toxicity to the cells, high ones lower toxicity to the cells. In general, EC50 refers to the concentration needed to bring the measured effect to its halfway point. Consider `COC(=O)C1=C(CN2CC(F)(F)[C@H]3[C@@H]2CCN3C[C@@H](C)C(=O)O)NC(c2nccs2)=N[C@H]1c1cccc(F)c1C` (single isomer, unassigned) [Compound 131B, 3-((cis)-6,6-Difluoro-4-(((S*)-6-(3-fluoro-2-methylphenyl)-5-(methoxycarbonyl)-2-(thiazol-2-yl)-3,6-dihydropyrimidin-4-yl)methyl)hexahydropyrrolo[3,2-b]pyrrol-1(2H)-yl)-2-methylpropanoic acid], for which the CC50 in the data set on HepG2.2.15 cells came out at 65600 nM. Besides, in the data set on HBV, the EC50 came to 29.7 nM.
As for `CCOC(=O)C1=C(CN2CC(F)(F)[C@H]3[C@@H]2CN(C(C)=O)N3CCC(C)(C)C(=O)O)NC(c2nccs2)=N[C@H]1c1cccc(F)c1C` [Compound 70B, 4-((cis)-2-Acetyl-4-(((S)-5-(ethoxycarbonyl)-6-(3-fluoro-2-methylphenyl)-2-(thiazol-2-yl)-3,6-dihydropyrimidin-4-yl)methyl)-6,6-difluorohexahydropyrrolo[3,2-c]pyrazol-1(2H)-yl)-2,2-dimethylbutanoic acid], in the data set on HepG2.2.15 cells, the CC50 was > 50000 nM. Further, the EC50 in the data set with HBV stood at 16 nM.
On to `CCOC(=O)C1=C(CN2CC(F)(F)[C@H]3[C@@H]2CCN3CC2(C(=O)O)CC2)NC(c2nccs2)=N[C@H]1c1cccc(F)c1C` (relative stereo) [Compound 38A, 1-((4-(((S)-5-(ethoxycarbonyl)-6-(3-fluoro-2-methylphenyl)-2-(thiazol-2-yl)-3,6-dihydropyrimidin-4-yl)methyl)-6,6-difluorohexahydropyrrolo[3,2-b]pyrrol-1(2H)-yl)methyl)cyclopropane-1-carboxylic acid], for which, in data set [1], the CC50 at 6 days turned out to be 20000 nM. Also, in the data set on HBV (Hepatitis B virus, HepG2.2.15, 144 h), the EC50 came out at 1.5 nM.
